Assay results from US20230372393A1, “METHODS FOR ALLOGENEIC HEMATOPOIETIC STEM CELL TRANSPLANTATION” (Orca Biosystems, Inc., priority 2020, published 2023).

Columns and labels:
Type in all cases: in vivo, human
[1] = tested on: subjects with advanced hematologic malignancies undergoing myeloablative alloHCT; assay: Clinical study: acute GVHD (MAGIC criteria)
Procedure: (§1) A clinical study was conducted in subjects with advanced hematologic malignancies undergoing myeloablative allogeneic hematopoietic cell transplantation (alloHCT).
(§2) Personnel who identified subjects for the SOC cohort were blinded as to their clinical outcomes.
Acute GVHD was staged and graded per MAGIC Standardization criteria.
Acute GVHD: Acute GVHD (aGVHD) is a significant driver of morbidity and mortality associated with alloHCT, reducing the severity and incidence of aGVHD has the potential to greatly benefit graft recipients. Acute GVHD was staged and graded per Mount Sinai Acute GvHD International Consortium (MAGIC) Standardization criteria.

[2] = tested on: subjects with advanced hematologic malignancies undergoing myeloablative alloHCT; assay: Clinical study: chronic GVHD (NIH criteria); details: serum tacrolimus trough higher versus lower than 4 ng/ml, FIG. 9B
Procedure: as §1, §2

[3] = tested on: subjects with advanced hematologic malignancies undergoing myeloablative alloHCT; assay: Clinical study: disease relapse and disease status; details: tacrolimus-only relative to sirolimus-only patients
Procedure: as §1, §2

[4] = tested on: subjects with advanced hematologic malignancies undergoing myeloablative alloHCT; assay: Clinical study: GVHD and relapse-free survival, cGVHD-free survival; details: tacrolimus-only relative to sirolimus-only patients, FIG. 7G
Source text: GVHD and relapse-free survival is a composite readout that can refer to survival without relapse or Grade ≥3 acute or extensive chronic GVHD.

[5] = tested on: subjects with advanced hematologic malignancies undergoing myeloablative alloHCT; assay: Clinical study: overall survival; details: tacrolimus-only relative to sirolimus-only patients, FIG. 7H
Source text: Overall survival: OS was defined as the time from the date of transplant to the date of death from any cause or, for surviving patients, to the date of last follow-up.

[6] = tested on: CD3+ cells of donor origin; assay: Donor T cell chimerism versus tacrolimus trough level; details: lower average trough tacrolimus level through day +30, p=0.0011, FIG. 9H
Procedure: Peripheral blood samples from subjects were also analyzed for chimerism as part of the follow-up procedures. The blood samples were processed to select for various cell populations using standard markers for each cell population. Blood was drawn from subjects that received the composition of the disclosure on day +28, day +56, day +100, day +180 and day +365 post-transplant, and the frequency of peripheral blood cells were quantified by flow cytometry (Markers used for analysis are described in Table 16).
Without wishing to be bound by a theory, it can be hypothesized that an improved chimerism due to higher tacrolimus levels may have led to the improved GVHD and survival outcomes in patients.

What does the source list for `C=CC[C@@H]1/C=C(\C)C[C@H](C)C[C@H](OC)[C@H]2O[C@@](O)(C(=O)C(=O)N3CCCC[C@H]3C(=O)O[C@H](/C(C)=C/[C@@H]3CC[C@@H](O)[C@H](OC)C3)[C@H](C)[C@@H](O)CC1=O)[C@H](C)C[C@@H]2OC` [tacrolimus]?
GVHD rates ([1]; average serum tacrolimus trough level higher than 4 ng/ml for the first 30 days post-transplant, FIG. 8A): lower GVHD rates; GVHD rates ([1]; same conditioning regimen (Bu/Cy or TBI/BFT), trough higher versus lower than 4 ng/ml, FIGS. 9C-G): improvement in GVHD rates; Acute GVHD rates ([1]; serum tacrolimus trough higher versus lower than 4 ng/ml, FIG. 9A): significant improvement; GVHD rates ([1]; tacrolimus only versus sirolimus only prophylaxis, FIGS. 7A-C): higher GVHD rates; chronic GVHD rates [2]: improvements; survival (FIG. 7E) [3]: improved; relapse rates ([3]; FIG. 7F): improved; GRFS rates [4]: improved; overall survival rates [5]: improved; engraftment of donor T cells (T cell chimerism) [6]: increased engraftment of donor T cells
